# Where two headings read alike, the source gives them in different places. Square brackets hold non-standard residues; d marks the D form. Peptide text beside a SMILES is read from it. * marks the point of attachment. X2 = c1ccc([P+](CCCCCCCCCCN*)(c2ccccc2)c2ccccc2)cc1; X1 = c1ccc([P+](CCN*)(c2ccccc2)c2ccccc2)cc1
# Experiments:
# [1] = tested on: B. subtilis CFR; assay: microbe, parasite or virus in culture; type: cell-based; details: CFR, 18 h
# Protocol: (§1) The MIC values for Bac(1–10), Bac(1–10, R/Y), Bac(1–10, R/Y)-Cn-TPP, TPP-C10-Bac(1–10, R/Y), and Onc112 were determined via LB broth microdilution, as recommended by CLSI in the Methods for Dilution Antimicrobial Susceptibility Tests for Bacteria that Grow Aerobically, Approved Standard, 9th ed., CLSI document M07-A9, using in-house-prepared panels. The compounds were diluted in a 96-well microtiter plate to final concentrations ranging from 0.1 to 100 µM in a 200 µL aliquot of the bacterial suspension, followed by incubation at 37 °C for 18 h. The cell concentration was estimated according to the absorbance (A600). The measurements were performed with a VICTOR X5 Multilabel Plate Reader (PerkinElmer, Waltham, MA, USA). The following bacterial strains were used: E. coli BW25113, E. coli JW0368 ΔsbmA, B. subtilis 168, and B. subtilis CFR [39].
# [2] = tested on: E. coli BW25113; assay: microbe, parasite or virus in culture; type: cell-based; details: E. coli BW25113, 37 °C, 18 h
# Protocol: as §1
# [3] = tested on: B. subtilis 168; assay: microbe, parasite or virus in culture; type: cell-based
# Protocol: as §1
# [4] = tested on: VA13; assay: cells; type: cell-based, human
# Protocol: (§2) The cytotoxicity of the substances under study was tested using the MTT (3-(4,5-dimethylthiazol-2-yl)-2,5-diphenyltetrazolium bromide) assay with some modifications. The detailed procedure for the MTT assay is given in the Supplementary Materials (Section S5).
# (§3) Two thousand five hundred cells per well for the MCF7, HEK293T, and A549 cell lines or 4000 cells per well for the VA13 cell line were plated in 135 µL of DMEM-F12 media with 10% FBS (both Gibco, Waltham, MA, USA) in a 96-well plate and were incubated in a 5% CO2 incubator for the first 16 h, without treatment. Then 15 µL of media-DMSO solutions of the tested substances were added to the cells (the final DMSO concentrations in the media were 1% or less), and the cells were treated for 72 h with 25 nM–50 µM (eight dilutions) of the tested substances (triplicate each). Serial dilutions of DMSO and doxorubicin were used as controls. The MTT reagent (Paneco LLC, Moscow, Russia) was then added to the cells at a final concentration of 0.5 g/L (10× stock solution in PBS was used) and incubated for 2.5 h at 37 °C in the incubator under an atmosphere of 5%
# (§4) CO2. The MTT solution was then discarded, and 140 µL of DMSO (PharmaMed LLC, Krasnodar, Russia) was added. The plates were swayed on a shaker (60 rpm) to dissolve the formazan. The absorbance was measured using the VICTOR X5 Multilabel Plate Reader (PerkinElmer, Wa l th a m, MA, USA) at a wavelength of 565 nm (in order to measure formazan concentration). The resu l ts were used to construct a dose-response graph and to estimate IC50 values.
# (§5) Figure S11.The dependencies of viability of cells after treatment by tested compounds.
# (§6) (1 picture or pasted object on this page, not shown here)
# [5] = tested on: MCF7; assay: cells; type: cell-based, human
# Protocol: as §2, §3, §4, §5, §6
# [6] = tested on: HEK293T; assay: cells; type: cell-based, human; details: 72 h
# Protocol: as §2, §3, §4, §5, §6
# [7] = tested on: 70S E. coli ribosome; assay: Competition-binding assay, displacement of BODIPY-Bac(1–10), fluorescence anisotropy; details: read-out: apparent dissociation constant (KD)
# Protocol: 70S ribosomes were isolated from E. coli MRE600 cells according to a published procedure. The binding of BODIPY-Bac(1–10) to 70S E. coli ribosomes was performed according to the following procedure. BODIPY-Bac(1–10) (16 nM) was incubated with ribosomes (from 0.5 nM to 2000 nM) for 2 h at 26 °C in a buffer containing 20 mM of HEPES-KOH (pH 7.5), 50 mM of NH4Cl, 10 mM of Mg(CH3COO)2, 4 mM of β-mercaptoethanol, and 0.05% Tween-20. The binding affinities of peptides 1 and 2, their TPP analogs 3–5, as well as the control compounds for the E. coli ribosome were analyzed via a competition-binding assay using fluorescently labeled BODIPY-Bac(1–10) or BODIPY-ERY, as described before in [38, 54]. The fluorescent compound (16 nM) was mixed with ribosomes (84 nM for BODIPY-Bac(1–10) and 46 nM for BODIPY-ERY) in the buffer. Solutions of the tested compounds were added to the obtained complexes to final concentrations ranging from 0.01 to 100 µM. The mixtures were incubated for 2 h at 26 °C, and then the values of fluorescence anisotropy were measured with a VICTOR X5 Multilabel Plate Reader (PerkinElmer, Waltham, MA, USA) using a 384-well plate. The excitation wavelength was 485 nm, and the emission wavelength was 535 nm. From the data obtained, apparent dissociation constants were calculated.
# [8] = tested on: A549; assay: cells
# Protocol: as §2, §3, §4, §5, §6
# [9] = tested on: E. coli JW5503 (∆tolC) (KanS) pDualrep2; assay: pDualrep2 double-reporter agar plate test; type: cell-based; details: 1 µL of 10 mM solution on agar plate
# Protocol: The “pDualrep2” system was used to evaluate the mechanism of the antimicrobial action of the synthesized compounds. This system is based on the hypersensitive strain E. coli JW5503 (∆tolC) (KanS) transformed with the “pDualrep2” plasmid, which allows one to sort out suppressors of protein synthesis or SOS response inducers. Briefly, 1 µL of 10 mM water solutions of Bac(1–10), Bac(1–10, R/Y), Bac(1–10, R/Y)-Cn-TPP, TPP-C10-Bac(1–10, R/Y), and Onc112 were applied onto the agar plate that already contained a layer of the reporter strain E. coli JW5503 (∆tolC) (KanS) pDualrep2, and then the plate was incubated overnight at 37 °C. The agar plate was scanned using the ChemiDoc^TM Imaging System (Bio-Rad Laboratories, Hercules, CA, USA), containing two channels, “Cy3-blot” (553/574 nm; green pseudocolor) for Turbo Red Fluorescent Protein (TurboRFP) detection and “Cy5-blot” (588/633 nm; red pseudocolor) for Katushka2S fluorescence. […] Levofloxacin (LEV; 50 μg/mL, 1 μL) and erythromycin (ERY; 5 mg/mL, 1 μL) were utilized as positive controls for DNA and protein synthesis inhibitors, respectively.
# [10] = VA13, 72 h, MTT, read-out: IC50 (50% inhibition of viability of cells)
# [11] = MCF7, 72 h, MTT, read-out: IC50 (50% inhibition of viability of cells)
# [12] = HEK293T, MTT, read-out: IC50 (50% inhibition of viability of cells)
# [13] = read-out: IC50 (50% inhibition of viability of cells), A549, 72 h, MTT
SMILES,MIC [1] [µM],MIC [2] [µM],"MIC ([3]; B. subtilis 168, 37 °C, 18 h) [µM]","IC50 [4, 10] [µM]","IC50 [5, 11] [µM]","IC50 [6, 12] [µM]",Kd ([7]; CI (α = 0.05)) [µM],"IC50 [8, 13] [µM]",inhibitory effect on growth of bacterial cells [9],reporter induction (Katushka2S red pseudocolor = protein synthesis inhibition) [9],"MIC ([3]; 168, 18 h) [µM]",IC50 ([4]; 72 h) [µM],IC50 ([5]; 72 h) [µM],IC50 [6] [µM],Kd ([7]; Figure S3B) [µM],IC50 ([8]; 72 h) [µM]
"CC[C@H](C)[C@H](NC(=O)[C@H](CCCNC(=N)N)NC(=O)[C@@H](N)CCCNC(=N)N)C(=O)N[C@@H](CCCNC(=N)N)C(=O)N1CCC[C@H]1C(=O)N[C@@H](CCCNC(=N)N)C(=O)N1CCC[C@H]1C(=O)N1CCC[C@H]1C(=O)N[C@@H](Cc1ccc(O)cc1)C(=O)N[C@@H](CC(C)C)C(=O)NCCCCCCCCCC[P+](c1ccccc1)(c1ccccc1)c1ccccc1 [Compound 4, Bac(1–10, R/Y)-C10-TPP] (H-RRIRPRPPYL-X2; N-terminus assumed)",0.8,100,1.6,12 ± 1,10 ± 1,3.1 ± 0.5,0.25 ± 0.04,9.2 ± 0.9,demonstrated an inhibitory effect on the growth of bacterial cells,red pseudocolor reporter induction was observed,,,,,,
"CC[C@H](C)[C@H](NC(=O)[C@@H](CCCNC(=N)N)NC(=O)[C@H](CCCNC(=N)N)NC(=O)[C@@H]1CCCN1C(=O)[C@@H]1CCCN1C(=O)[C@H](CCCNC(=N)N)NC(=O)[C@@H]1CCCN1C(=O)[C@H](CCCNC(=N)N)NC(=O)[C@@H]1CCCN1C(=O)[C@H](CC(C)C)NC(=O)[C@H](Cc1ccc(O)cc1)NC(=O)[C@@H]1CCCN1C(=O)[C@@H]1CCCN1C(=O)[C@H](CCCCN)NC(=O)[C@H](CC(=O)O)NC(=O)[C@@H](N)C(C)C)C(=O)N[C@@H](Cc1ccc(O)cc1)C(=O)N[C@@H](CC(N)=O)C(=O)N[C@H](CCCNC(=N)N)C(N)=O [Onc112, reference compound] (H-VDKPPYLPRPRPPR[dR]IYN[dR]-NH2; N-terminus assumed)",>50,11.6,,,,,,,,red pseudocolor reporter induction was observed,>50,> 50,> 20,> 50,0.003 ± 0.001,> 50
"CC[C@H](C)[C@H](NC(=O)[C@H](CCCNC(=N)N)NC(=O)[C@@H](N)CCCNC(=N)N)C(=O)N[C@@H](CCCNC(=N)N)C(=O)N1CCC[C@H]1C(=O)N[C@@H](CCCNC(=N)N)C(=O)N1CCC[C@H]1C(=O)N1CCC[C@H]1C(=O)N[C@@H](Cc1ccc(O)cc1)C(=O)N[C@@H](CC(C)C)C(=O)NCC[P+](c1ccccc1)(c1ccccc1)c1ccccc1 [Compound 3, Bac(1–10, R/Y)-C2-TPP] (H-RRIRPRPPYL-X1; N-terminus assumed)",50,26.3,12.5,> 50,> 20,> 50,0.26 ± 0.03,> 50,demonstrated an inhibitory effect on the growth of bacterial cells,red pseudocolor reporter induction was observed,,,,,,
